Active and inactive are the calls of the source. The rule behind the calls is not given here.
Tested on: Trypanosoma brucei
Experiment: Activity at recombinant His-tagged Trypanosoma brucei NTR assessed as oxidation of NADH/min/mg of protein after 5 mins by spectrophotometric analysis
Conditions: not given

Compound | Activity
O=C(CN1CCN(c2ccc(Cl)c(Cl)c2)CC1)Nc1ncc([N+](=O)[O-])s1 | inactive
O=C(Cn1ccnc1[N+](=O)[O-])NCc1ccccc1 | Active
O=C(CN1CCN(c2ccc(C(F)(F)F)cc2)CC1)Nc1ncc([N+](=O)[O-])s1 | Active

Now from value to compound:

Activity | Compound
inactive | O=C(CN1CCN(c2ccccn2)CC1)Nc1ncc([N+](=O)[O-])s1
inactive | O=C(COc1ccc(-c2ccccc2)cc1)Nc1ncc([N+](=O)[O-])s1
inactive | O=C(Nc1ncc([N+](=O)[O-])s1)c1ccc(-c2ccccc2)cc1
inactive | O=C(CN1CCN(C(c2ccccc2)c2ccc(Cl)cc2)CC1)Nc1ncc([N+](=O)[O-])s1 (centres undefined)

Tested on: not listed separately
Experiment: Selectivity index, ratio of IC50 for rat L6 cells to IC50 for amastigote stage of Trypanosoma cruzi Tulahuen C4 infected in rat L6 cells
Format: toxicity, cell-based
Conditions: read-out: Ratio IC50

Compound | selectivity ratio
COc1ccc(N2CCN(CC(=O)Nc3ncc([N+](=O)[O-])s3)CC2)cc1 | 14

Tested on: Trypanosoma brucei brucei
Experiment: Antitrypanosomal activity against wild type bloodstream form of Trypanosoma brucei brucei assessed as inhibition of parasite growth after 3 days by resazurin assay
Format: functional, organism-based
Conditions: 72 h

Compound | IC50 [µM]
O=C(CN1CCN(c2ccccn2)CC1)Nc1ncc([N+](=O)[O-])s1 | 21.6

Source: ChEMBL document CHEMBL3804781, “Antitrypanosomal activity of 5-nitro-2-aminothiazole-based compounds” (Eur J Med Chem, 2016)
